Data as given in patent US20250197357A1, “PPARG INVERSE AGONISTS AND USES THEREOF” (Flare Therapeutics Inc., priority 2022, published 2025).

How the values were obtained:
[1] = molecular target: T1, PPARG/RXRA LBD heterodimer (Homo sapiens, UniProt P37231); assay: PPARγ-NCOR1 recruitment assay (TR-FRET); type: binding; details: NCOR1 ID2 peptide, 80 nM Rosiglitazone, 3 hours, read-out: PPARG - NCOR recruitment assay EC50
T1 construct: 2 nM WT PPARG LBD (e. coli expressed, His-TEV-Q203-Y477); fused on or other part: N-terminal His tag with TEV site on the PPARG LBD
Description: Compound potency (EC50) and maximal extent of NCOR1 recruitment to PPARG were assessed a TR-FRET binding assay measuring association of a biotinylated NCOR1 ID2 peptide (Biotin-[…]-amide) to PPARG/RXRA LBD heterodimer. Specifically, a 20 microliters of TR-FRET master mix consisting of 2 nM WT PPARG LBD (e. coli expressed, His-TEV-Q203-Y477; Uniprot ID P37231-2), 2 nM WT RXRA LBD or mutant S427F RXRA LBD (e. coli expressed, Flag-TEV-E228-T462; […]. Mixtures were incubated for 3 hours and read in an EnVision plate reader (Perkin Elmer) with Ex/Em 615/665. To determine the potency (EC50) and extent of NCOR1 recruitment, TR-FRET ratios were normalized to the average ratio of DMSO control wells (0%) and to the average maximum ratio for positive control compound (T0070907 (2-chloro-5-nitro-N-4-pyridinyl-benzamide); defined as 100%) in CDD Vault and analyzed using the Levenberg-Marquardt algorithm.
T1 sequence (O75376 2251-2273 limits assumed, one chain of several, further chain): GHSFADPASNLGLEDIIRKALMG

[2] = molecular target: T2, PPARG/RXRA LBD heterodimer (Homo sapiens, UniProt P37231); assay: PPARγ-MED1 blockade assay (TR-FRET); type: binding; details: MED1 LxxLL peptide, 80 nM Rosiglitazone, 3 hours
T2 construct: His-TEV-Q203-Y477; Uniprot ID P37231-2; made in house; host or cells: E. coli
T2 sequence (P37231 203-477 isoform P37231-2): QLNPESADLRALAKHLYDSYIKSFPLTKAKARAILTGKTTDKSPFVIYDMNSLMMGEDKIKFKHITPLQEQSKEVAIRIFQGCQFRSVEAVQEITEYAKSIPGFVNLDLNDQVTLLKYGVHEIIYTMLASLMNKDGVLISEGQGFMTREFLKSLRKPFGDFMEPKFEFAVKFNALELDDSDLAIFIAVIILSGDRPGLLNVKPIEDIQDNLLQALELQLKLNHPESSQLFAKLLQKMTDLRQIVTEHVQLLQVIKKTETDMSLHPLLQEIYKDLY
T2 sequence (P19793 228-462 partner limits assumed): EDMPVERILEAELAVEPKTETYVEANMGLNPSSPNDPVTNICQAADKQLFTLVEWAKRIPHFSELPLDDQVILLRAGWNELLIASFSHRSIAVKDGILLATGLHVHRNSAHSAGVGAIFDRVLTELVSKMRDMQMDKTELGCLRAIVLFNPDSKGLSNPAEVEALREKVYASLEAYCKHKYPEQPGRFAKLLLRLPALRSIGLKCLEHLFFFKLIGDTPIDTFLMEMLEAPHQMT
Description: Compound potency (IC50) and maximal extent of MED1 repulsion to PPARG were assessed a TR-FRET binding assay measuring association of a biotinylated MED1 LxxLL peptide (Biotin—[…]-amide) to PPARG/RXRA LBD heterodimer. Specifically, a 20 microliters of TR-FRET master mix consisting of 2 nM WT PPARG LBD (e. coli expressed, His-TEV-Q203-Y477; Uniprot ID P37231-2), 2 nM WT RXRA LBD (e. coli expressed, Flag-TEV-E228-T462; […]. Mixtures were incubated for 3 hours and read in an EnVision plate reader (Perkin Elmer) with Ex/Em 615/665. To determine the potency (IC50) and extent of MED1 repulsion, TR-FRET ratios were normalized to the average ratio of DMSO control wells (0%) and to the average minimum ratio for positive control compound (GW9662 (2-chloro-5-nitrobenzanilide); defined as 100%) in CDD Vault and analyzed using the Levenberg-Marquardt algorithm.

[3] = system: ANGPTL4, a PPARG target gene, in HT1197 (RXRA S427F mutation) cells; assay: Bladder cancer pharmacodynamic assay (HT1197 cell assay, qPCR of PPARG target genes); type: cell-based; details: Homo sapiens; for inhibition at 0.1 µM: 100 nM compound, 24 hours, relative to DMSO control
Description: 5637 (PPARG amplified) and HT1197 (RXRA S427F mutation) cells were used for assessment of modulation of PPARG target genes using quantitative PCR. Cells were treated for 24 hours with PPARG inverse agonists prior to analysis of FABP4 (IDT, Cat: Hs.PT 58.20106818) and ANGPTL4 (IDT, Cat: Hs.PT 58.25480012) expression, with expression of the housekeeping gene TBP (IDT, Cat: Hs.PT 58v.39858774) used to normalize expression across samples. Quantitative PCR was performed using an ABI QuantStudio 7 Flex Reaction system. Data were analyzed and reported relative to DMSO control using the comparative Ct method (ΔΔCt).

EC50 [1] | EC50 [2] | EC50 ([3]; 24 hours treatment, qPCR) | SMILES | inhibition at 0.1 µM [3]
100 to 1000 nM | 100 to 1000 nM | 2.9 nM | CS(=O)(=O)c1ccc(C#N)cc1C(=O)Nc1cc(F)c(-c2ccc(C(F)F)nc2)c(F)c1 [Example 13, 5-cyano-N-(4-(6-(difluoromethyl)pyridin-3-yl)-3,5-difluorophenyl)-2-(methylsulfonyl) benzamide] | 80%
100 to 1000 nM | 100 to 1000 nM | – | CS(=O)(=O)c1ccc(C#N)cc1C(=O)Nc1ccc(C(F)(F)F)c(C#N)c1 [Example 10, 5-cyano-N-(3-cyano-4-(trifluorometh-yl)phenyl)-2-(methylsulfonyl) benzamide] | 48%
100 to 1000 nM | 100 to 1000 nM | – | N#Cc1cc(C(=O)Nc2cc(F)cc(F)c2)c(S(=O)(=O)CC(F)(F)F)cn1 [Example 34, 2-cyano-N-(3,5-difluorophenyl)-5-((2,2,2-trifluoroethyl)sulfonyl) isonicotinamide] | 59%
100 to 1000 nM | 100 to 1000 nM | – | Cn1cc(-c2c(F)cc(NC(=O)c3cc(C#N)ccc3S(C)(=O)=O)cc2F)cn1 [Example 28, 5-cyano-N-(3,5-difluoro-4-(1-methyl-1H-pyrazol-4-yl)phenyl)-2-(methylsulfonyl) benzamide] | 72%
100 to 1000 nM | 100 to 1000 nM | – | CS(=O)(=O)c1ccc(C#N)cc1C(=O)Nc1cc(F)cc(C#N)c1 [Example 25, 5-cyano-N-(3-cyano-5-fluorophenyl)-2-(methylsulfonyl) benzamide] | 77%
> 10000 nM | > 10000 nM | – | CC(=O)N1CCN(c2ccc(NC(=O)c3cc(C#N)ccc3S(C)(=O)=O)cn2)CC1 [Example 18, N-(6-(4-acetylpiperazin-1-yl)pyridin-3-yl)-5-cyano-2-(methylsulfonyl) benzamide] | 13%
1000 to 10000 nM | 1000 to 10000 nM | – | CS(=O)(=O)c1ccc(C#N)cc1C(=O)Nc1ccc(F)c(C#N)c1 [Example 17, 5-cyano-N-(3-cyano-4-fluorophenyl)-2-(methylsulfonyl) benzamide] | 43%
> 10000 nM | > 10000 nM | – | CN1CCN(c2ccc(NC(=O)c3cc(C#N)ccc3S(C)(=O)=O)cn2)CC1 [Example 12, 5-cyano-N-(6-(4-methylpiperazin-1-yl)pyridin-3-yl)-2-(methylsulfonyl) benzamide] | 25%
1000 to 10000 nM | 1000 to 10000 nM | – | CS(=O)(=O)c1ccc(C#N)cc1C(=O)Nc1ccc2cnccc2c1 [Example 14, 5-cyano-N-(isoquinolin-6-yl)-2-(methylsulfonyl) benzamide] | 35%
100 to 1000 nM | 100 to 1000 nM | – | N#Cc1ccc(SC(F)(F)F)c(C(=O)Nc2cc(F)c(-c3ccc(C(F)F)nc3)c(F)c2)c1 [Example 2, 5-cyano-N-(4-(6-(difluoromethyl)pyridin-3-yl)-3,5-difluorophenyl)-2-((trifluorometh-yl)thio)benzamide] | 83%

SMILES | EC50 [1] | EC50 [2] | EC50 ([3]; 24 hours treatment, qPCR) | inhibition at 0.1 µM [3]
CS(=O)(=O)c1ccc(C#N)cc1C(=O)Nc1ccc(C#N)c(C(F)(F)F)c1 [Example 7, 5-cyano-N-(4-cyano-3-(trifluorometh-yl)phenyl)-2-(methylsulfonyl) benzamide] | 1000 to 10000 nM | 1000 to 10000 nM | – | 77%
